In EP0573360A1, “Pyrrolothienopyrazine compounds as 5-HT3 receptors antagonists” (ADIR ET COMPAGNIE, priority 1992, dated 1993):

Target: T1, récepteurs 5-HT3 (Rattus norvegicus, UniProt P35563)
T1 construct: induite par l'injection intraveineuse d'agonistes 5-HT3 chez le rat anesthésié à l'uréthane; from tissue; host or cells: whole animal: Sprague-Dawley rat, vagal afferents
T1 sequence (P35563 24-483): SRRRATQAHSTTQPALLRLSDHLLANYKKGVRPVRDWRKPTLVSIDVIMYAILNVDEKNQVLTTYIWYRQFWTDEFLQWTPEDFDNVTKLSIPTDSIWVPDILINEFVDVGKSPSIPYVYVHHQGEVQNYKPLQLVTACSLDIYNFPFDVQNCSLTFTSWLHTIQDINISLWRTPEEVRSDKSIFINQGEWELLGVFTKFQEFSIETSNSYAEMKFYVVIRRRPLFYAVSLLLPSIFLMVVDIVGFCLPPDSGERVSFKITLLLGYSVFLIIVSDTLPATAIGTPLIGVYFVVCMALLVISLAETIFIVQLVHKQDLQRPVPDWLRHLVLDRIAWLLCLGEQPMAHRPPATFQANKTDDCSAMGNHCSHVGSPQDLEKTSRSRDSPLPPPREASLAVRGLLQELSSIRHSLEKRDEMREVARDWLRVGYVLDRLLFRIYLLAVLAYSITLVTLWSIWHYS
Assay: Bezold-Jarisch bradycardic reflex in the urethane-anaesthetised rat
Assay type: in vivo
Conditions: for duration of the transient fall of rythme cardiaque: 30 µg i.v.; for prevention of the agonist-induced fall of rythme cardiaque: prior i.v. administration, dose 1 µg/kg
Text: La bradycardie (réflexe de BEZOLD-JARISCH) est induite par l'injection intraveineuse d'agonistes 5-HT3 chez le rat anesthésié à l'uréthane. Cette réponse consiste en une bradycardie brutale mais transitoire induite par la stimulation des récepteurs 5-HT3 sur les afférences vagales. Ce modèle est donc tout à fait approprié pour révéler d'éventuels effet agonistes ou antagonistes de composés qui sont des ligands potentiels des récepteurs 5-HT3.
L'animal (rat mâle, adulte - souche Sprague-Dawley, 250-300 g) est tout d'abord anesthésié à l'uréthane (1,4 g/kg i.p.) puis trachéotomisé pour la mise en place d'une canule trachéale. Un cathéter (0,3 mm) est introduit dans l'aorte abdominale via l'artère fémorale pour l'enregistrement en continu de la pression artérielle et du rythme cardiaque. Les agents pharmacologiques sont injectés dans la veine saphène qui a été canulée à cet effet.

## Cc1[nH]c2ccc(O)cc2c1CCN [2-méthyl-5-tryptamine, 2-méthyl-5 hydroxytryptamine]
  duration of the transient fall of rythme cardiaque: 4-5 secondes

## Cc1nccn1CC1CCc2c(c3ccccc3n2C)C1=O (stereo not shown) [ondansetron]
  prevention of the agonist-induced fall of rythme cardiaque: complétement empêché

## NCCc1c[nH]c2ccc(O)cc12 [sérotonine]
  duration of the transient fall of rythme cardiaque: 4-5 secondes

## COc1cc(N)c(Cl)cc1C(=O)NC1CN2CCC1CC2 (stereo not shown) [zacopride]
  prevention of the agonist-induced fall of rythme cardiaque: complétement empêché
